# Reference: PubChem BioAssay AID743394 (Broad Institute, 2014)
# Active and inactive are the calls of the source.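 Rule for the calls: active = 40% activation versus positive control reached by fitted dose-response curve at or below highest valid tested dose; inconclusive = poor fit quality, or flat fit with activation between 30% and 70%; inactive = the rest.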
# Experiment: Xi-linked GFP reactivating small molecules – imaging, 68-5-11 mouse fibroblasts, cherry-pick, dose response (AID 743394);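 note: sensitizer 5-aza-dC present in the wells at 0.5 mM final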
# Details: 68-5-11 mouse fibroblast XiGFP reporter, % GFP-positive imaging, 3 d; at 19.5 µM (top of the series)
row,SMILES,activation
1,OCC[n+]1c2ccccc2nc2ccc(N3CCOCC3)cc21,0.02% (inactive)
2,COP(=S)(OC)Oc1ccc(Sc2ccc(OP(=S)(OC)OC)cc2)cc1,0.028% (inactive)
3,O=C(Cc1ccccn1)N1CCCCN2[C@H](C1)[C@@H](c1ccc(-c3ccccc3F)cc1)[C@@H]2CO,1.33% (inactive)

# Same assay, conditions: 68-5-11 mouse fibroblast XiGFP reporter, % GFP-positive imaging, 3 d; at 19.5 µM (top of the series); cells co-treated with 5-aza-dC sensitizer; scaled: neutral wells 0, ellipticine wells 100
row,SMILES,activation
1,O=C(CSc1nc2ccccc2[nH]1)N/N=C/C=C/c1ccccc1[N+](=O)[O-],0.165% (inactive)
2,COc1cccc(CNC(=O)C(Cc2ccccc2)n2cccc2)c1 (configuration not stated),0.002% (inactive)
3,O=C(c1cnccn1)N1CC(=O)N2[C@H](CO)[C@@H](c3ccc(-c4cccc(F)c4)cc3)[C@@H]2C1,-0.014% (inactive)
4,CC(OCCN(C)C)C(=O)C12CC3CC(CC(C3)C1)C2 (configuration not stated),0.008% (inactive)
5,COc1ccc(-c2nn(-c3ccccc3)cc2C(=O)NC(=S)Nc2cc(Cl)ccc2Cl)cc1,3.67% (inactive)
6,Nc1nnc(SCC(=O)c2ccc([N+](=O)[O-])cc2)s1,0.961% (inactive)
7,O=c1[nH]c(=O)n([C@H]2C[C@H](O)[C@@H](CO)O2)cc1C(F)(F)F,-0.032% (inactive)
8,COc1ccc2c3c(n(C)c2c1)[C@H](CO)N(Cc1ccccc1F)CC31CCN(CC2CC2)CC1,0.046% (inactive)
9,Cc1ccc(S(=O)(=O)N(C)C[C@H]2Oc3ccc(NC(=O)Nc4ccccc4)cc3CC(=O)N([C@H](C)CO)C[C@@H]2C)cc1,-0.035% (inactive)
10,CC1=C(Cl)C2=NS(=O)(=O)CCN2C=C1Cl,0.137% (inactive)
11,COc1ccc(-c2ccc(C(=O)NCc3cccs3)c3occc23)c(C)c1,-0.032% (inactive)
12,CCOC(=O)N1CCN(Cc2cc(Cl)c3cccnc3c2O)CC1,-0.05% (inactive)
13,O=C(NNC(=O)c1ccccc1Cl)c1ccccc1Cl,-0.034% (inactive)
14,COc1ccccc1CNC(=O)COC(=O)COc1ccccc1F,0.549% (inactive)
15,COc1ccccc1N(C)c1cc2c(c3c1ccn3C)C1CCC2C1 (configuration not stated),0.146% (inactive)
16,NNc1nc2c(-c3ccc(F)cc3)nnn2c2ccccc12,0.731% (inactive)
17,CCC(=O)OCCNc1cc(Sc2nc3ccccc3[nH]2)c2nonc2c1[N+](=O)[O-],-0.037% (inactive)
18,O=C(CNC(=O)c1ccccc1F)OCc1nc2ccccc2s1,-0.127% (inactive)
19,Cc1nn2c(NCCCN(C)C)c3c(nc2c1-c1ccccc1)CCCC3,0.079% (inactive)
20,CCOC(=O)Nc1ccc2nc(-c3cscn3)[nH]c2c1,0.097% (inactive)
21,CC(C)(C=O)C1=CC(=O)c2ccccc2C1=O,-0.07% (inactive)

row,SMILES,activation
1,Cc1ccc(S(=O)(=O)NN2C(=O)/C(=C/c3ccccn3)SC2=S)cc1,0.025% (inactive)
2,Clc1ccc(-c2nc(-c3ccncc3)no2)c(Cl)c1,-0.034% (inactive)
3,Cc1ccc(Cn2cc(/C=N/Nc3ccc([N+](=O)[O-])cn3)c3ccccc32)cc1,1.53% (inactive)
4,COc1cc(/C=C/C(=O)c2ccc3c(c2)OCCO3)cc(Br)c1OCC(=O)N(C)C,-0.06% (inactive)
5,C[C@@H]1C[C@H]2[C@@H]3CCC4=CC(=O)C=C[C@]4(C)[C@@]3(F)[C@@H](O)C[C@]2(C)[C@H]1C(=O)CO,0.179% (inactive)
6,Cc1ccc(Nc2nc(N)nc(COC(=O)C3=COCCO3)n2)cc1,0.004% (inactive)
7,COc1ccc(NC(=O)Nc2ccc3c(c2)C(=O)N([C@H](C)CO)C[C@H](C)[C@H](CN(C)Cc2ccc4c(c2)OCO4)O3)cc1,-0.031% (inactive)
8,O=C1N(c2ccccc2)C[C@@H]2C[C@@H](c3cc4ccccc4o3)N3CCC[C@@]123,-0.008% (inactive)
9,O=C(NCCO)/C(=C/c1ccco1)NC(=O)c1ccco1,-0.047% (inactive)
10,Cc1ccc(O)c(N=Nc2ccc(S(=O)(=O)N3CCCC3)cc2)c1,0.067% (inactive)
11,Nc1nc(Nc2ccc(Cl)cc2)c(NC=O)c(=O)[nH]1,-0.075% (inactive)
12,Nc1cc2c3c(cccc3c1)C(=O)N(CCN1CCCC1)C2=O,-0.037% (inactive)
13,CN(CC(=O)Nc1ccc(Cl)c(Cl)c1)CC(=O)Nc1ccc2c(c1)OCO2,-0.047% (inactive)
14,Cn1cc(C(=O)N/N=C/C(Br)=C/c2ccccc2)ccc1=O,-0.07% (inactive)
15,CCOCCCn1c(=NC(C)=O)c(C#N)cc2c(=O)n3cccc(C)c3nc21,0.035% (inactive)
16,COc1ccc2c(c1)c(/C=N/Nc1nc3ccccc3[nH]1)c(C)n2C,5.21% (inactive)
17,CCOc1ccc(C(=O)c2cc([N+](=O)[O-])ccc2N2CCOCC2)cc1,0.569% (inactive)
18,O=C(C[C@@H]1C[C@@H]2c3cc(NC(=O)C4CCC4)ccc3O[C@@H]2[C@@H](CO)O1)NCc1ccc(Cl)cc1,0.899% (inactive)
19,CC1CC(C)CN(C(=O)CSCC(=O)Nc2nc(-c3cccs3)cs2)C1 (configuration not stated),-0.047% (inactive)
20,CN(C)CC(=O)N1CC2(C1)[C@@H](c1ccccc1)[C@H](CO)N2C(=O)C1CC1,-0.015% (inactive)
21,CN(C)C(=O)C[C@@H]1C=C[C@H](NS(=O)(=O)c2ccccc2)[C@@H](CO)O1,0.689% (inactive)

row,SMILES,activation
1,COc1ccc(N(C)S(=O)(=O)c2cccc(C(=O)NCC(c3cccs3)N(C)C)c2)cc1 (configuration not stated),0.036% (inactive)
2,C=CC[C@@H](CC(=O)N(CCO)Cc1ccccc1)C(=O)NCCOC(=O)[C@@H](CC=C)Cc1ccc(F)cc1,-0.009% (inactive)
3,COc1ccccc1-c1ccc(/C=N/O)o1,-0.003% (inactive)
4,O=C(O)c1ccccc1C1Nc2ccccc2C(=O)N1CCCN1CCOCC1 (configuration not stated),0.018% (inactive)
5,Cc1ccc(-c2csc3nc4c5ccccc5c(NCCCN(C)C)nn4c(=O)c23)cc1,-0.05% (inactive)
6,COc1ccccc1/C=C/C(=O)OCC(=O)NC(=O)NC1CCCC1,-0.012% (inactive)
7,C/C(=N\NC(=O)CC1N=C(Cc2ccccc2)NNC1=O)c1ccc(Br)cc1 (configuration not stated),0.028% (inactive)
8,C[C@@H]1CN([C@H](C)CO)C(=O)c2cc(NS(=O)(=O)c3ccccc3)ccc2O[C@@H](C)CCCCO[C@@H]1CN(C)Cc1ccc2c(c1)OCO2,0% (inactive)
9,Cn1c2ccccc2c2cnn(CC(=O)Nc3ccccc3Br)c(=O)c21,0.034% (inactive)
10,COCCN(C(=S)Nc1cccc(C)c1)C(C)c1cccnc1 (configuration not stated),0.005% (inactive)
11,CC[C@]12c3[nH]c4cc(CCC(=O)N(C)C)ccc4c3CCN1C(=O)[C@@H](CC(=O)NCCC1=CCCCC1)C[C@@H]2C(=O)N1CCN(C(=O)c2ccco2)CC1,0.011% (inactive)
12,CCNC(=O)C[C@@H]1CC[C@H]2[C@@H](COC[C@@H](O)CN2C(=O)C2CCCC2)O1,-0.016% (inactive)
13,COc1ccccc1NC(=S)N(CCCN1CCOCC1)Cc1cccs1,-0.076% (inactive)
14,[N-]=[N+]=CC(=O)C(O)(c1ccccc1)C(Cl)c1ccccc1 (configuration not stated),0.034% (inactive)
15,COc1ccc2c3c([nH]c2c1)[C@H](CO)N(C(=O)C1CCCC1)CC31CN(Cc2nccs2)C1,-0.007% (inactive)
16,Cc1occc1C(=O)N/N=C/C(Br)=C\c1ccccc1,-0.024% (inactive)
17,COC(=O)c1cnn(-c2ccccc2)c1N,0.12% (inactive)
18,O=C(NNC(=O)c1cc2ccccc2o1)c1ccc(Cl)cc1,0.006% (inactive)
19,CCOC(=O)c1sc(Nc2ccc(Br)cc2)nc1C,0.082% (inactive)
20,O=c1[nH]nc(SCCS(=O)(=O)c2ccc(F)cc2)n1-c1ccccc1C(F)(F)F,-0.024% (inactive)
21,COc1ccc(C2=NOC3(CC(=O)N(c4ccc(F)cc4)C3=O)C2)cc1 (configuration not stated),0.015% (inactive)

row,SMILES,activation
1,Cc1cccn2c(=O)c3cc(C(=O)NCc4ccc(F)cc4)c(=N)n(CCCN4CCOCC4)c3nc12,0.061% (inactive)
2,COc1ccc(COc2ccccc2C(=O)NCc2ccccc2)cc1F,-0.07% (inactive)
3,COc1ccc(Nc2nc(N)c(C(=O)c3ccc(F)cc3)s2)cc1,0.551% (inactive)
4,CC(=O)c1ccc2c(c1)OCCOCCOCCOCCOCCO2,-0.021% (inactive)
5,CCC(C(=O)Nc1cc(OC)c(NC(=O)c2ccccc2)cc1OC)c1ccccc1 (configuration not stated),-0.037% (inactive)
6,CC(C)C#Cc1ccc([C@@H]2[C@@H](CO)N3C(=O)CN(C(=O)c4ccc5c(c4)OCO5)C[C@H]23)cc1,0.09% (inactive)
7,CC(=O)c1ccc(NC(=O)COC(=O)CCc2ccc(S(=O)(=O)N3CCOCC3)cc2)cc1,0.332% (inactive)
8,CCn1c(Cl)c(C=O)s/c1=N\S(=O)(=O)c1ccccc1,1.44% (inactive)
9,CCN1CCc2c(sc(NC(=O)c3ccc4ccccc4c3)c2C(N)=O)C1,-0.008% (inactive)
10,Cc1ccccc1C1c2[nH]c3ccccc3c2CCN1Cc1cccn1-c1ncccn1 (configuration not stated),0.097% (inactive)
11,COc1ccc(-n2nc(C#N)c(Cl)cc2=O)cc1,0.745% (inactive)
12,CCCCn1nnnc1C(c1ccccc1)N1CCN(c2ccc(C)cc2)CC1 (configuration not stated),0.03% (inactive)
13,O=C(O)c1ccc(COc2ccccc2C=C2C(=O)c3ccccc3C2=O)cc1,0.163% (inactive)
14,CCCCC(CCC(=O)Nc1ccn(-c2ccccc2)n1)C(=O)O (configuration not stated),0% (inactive)
15,O=[N+]([O-])c1ccc(Sc2nnnn2-c2ccccc2)nc1,-0.121% (inactive)
16,COc1ccc(-n2ncc(Cl)c(Cl)c2=O)cc1,-0.032% (inactive)
17,COCCNC(=S)N(Cc1cccnc1)Cc1ccc(OC)c(OC)c1,0.071% (inactive)
18,COC(=O)c1c(NC(=O)c2ccc(C)cc2)csc1C,0.018% (inactive)
19,CO[C@@H]1CN(C)C(=O)c2cc(NS(C)(=O)=O)ccc2OC[C@H](C)N(C(=O)C2CCCC2)C[C@H]1C,0.988% (inactive)
20,Cc1ccc(-c2nc(CS(=O)CC(=O)NCCCN3CC(C)CC(C)C3)c(C)o2)cc1 (configuration not stated),0.4% (inactive)

# Same assay, conditions: 68-5-11 mouse fibroblast XiGFP reporter, % GFP-positive imaging, 3 d; at 21 µM (top of the series); cells co-treated with 5-aza-dC sensitizer; scaled: neutral wells 0, ellipticine wells 100
row,SMILES,activation
1,CO[C@H](CN(C)C(=O)Nc1ccc(C(F)(F)F)cc1)[C@@H](C)CN(Cc1ccccc1Cl)[C@@H](C)CO,0% (inactive)
